Reference: patent publication US20050175544A1, “Albuterol inhalation solution, system, kit and method for relieving symptoms of pediatric asthma” (Dey LP, priority 2001, published 2005)
Counter-ions that a name gives are not always drawn.

Tested on: children ages 6 to 12 with asthma
Assay: 4-week randomized placebo-controlled trial of nebulized albuterol solution, efficacy by FEV1
Assay type: in vivo
Settings: both unit doses; initial dose (Day 1) and after 4 weeks of treatment (Day 28)
Description: Patients were randomized to receive a nebulizer solution comprising either 0.63 mg/3 ml or 1.25 mg/3 ml of albuterol sulfate, or a placebo. The inhalation solution was administered via a Pari LC Plus™ nebulizer and a Pari PRONEB™ compressor. […] In this study, qualifying children ages 6 to 12 were randomized to receive 1 of the following three treatments twice daily (TD) for 4 weeks, each in 3.0 mL volume: (1) 1.25 mg albuterol sulfate inhalation solution; (2) 9.63 mg albuterol sulfate inhalation solution; or (3) placebo (saline). Each patient was provided with a personal compressor-driven PARI LC PLUS™ nebulizer, by Pari Respirator Equipment, Inc., Richmond, Va., for the duration of the study. […] The 4-week study period began with the initial dose, to be taken in the morning, administered at the study site. Pre-dose pulmonary function tests and pulmonary function tests 30 minutes after the end of nebulization and hourly thereafter for 6 hours were performed. After 11 days, patients returned for exchange of study medication and diaries and pulmonary function tests before and 30 minutes after the morning dosing. […] The safety profiles of each unit dose and placebo were determined by collecting vital signs (heart rate, blood pressure, respiration rate, and body temperature) as well as electrocardiograms. […]

## CC(C)(C)NCC(O)c1ccc(O)c(CO)c1 (stereo not drawn) [albuterol, α^1-[(tert-butylamino)methyl]-4-hydroxy-m-xylene-α,α′-diol sulfate (2:1)(salt)]
  Improvement in FEV1 compared to placebo (area under percent change from pre-dose FEV1 versus time curve): significant improvement
